We go through 9 compounds from ChEMBL document CHEMBL4732256, “Synthesis and biological activities of novel mitochondria-targeted artemisinin ester derivatives” (Bioorg Med Chem Lett, 2021).

One experiment relates to SMMC-7721. Briefly: Cytotoxicity against human SMMC-7721 cells assessed as reduction in cell viability by MTT assay. In kind it is functional, cell-based.
For another experiment, the system named is HepG2. Briefly: Cytotoxicity against human HepG2 cells assessed as reduction in cell viability by MTT assay. In kind it is functional, cell-based. On the technique in general: Tetrazolium dyes change colour on reduction, which living cells bring about.
In experiment [1] the test system is OVCAR-3. Briefly: Cytotoxicity against human OVCAR3 cells assessed as reduction in cell viability by MTT assay. Type of experiment: functional, cell-based.
For experiment [2], the system named is A549. Briefly: Cytotoxicity against human A549 cells assessed as reduction in cell viability by MTT assay. In kind it is functional, cell-based.
The subject of another experiment is J82. Briefly: Cytotoxicity in human J82 cells assessed as reduction in cell viability by MTT assay. In kind it is functional, cell-based.
A further experiment has as its system HUVEC. Briefly: Cytotoxicity against HUVEC assessed as reduction in cell viability by MTT assay. Type of experiment: cell-based. The following applies: Homo sapiens.
The test system of experiment [3] is OVCAR-3. Briefly: Induction of apoptosis in human OVCAR-3 cells assessed as early apoptotic cell at 10 uM after 48 hrs by Annexin V-FITC/PI staining based flow cytometry (reference value: 1.58%). Type of experiment: functional. Background: In flow cytometry, cells or beads pass a laser one at a time.
The test system of experiment [4] is OVCAR-3. Briefly: Induction of apoptosis in human OVCAR-3 cells assessed as late apoptotic cell at 10 uM after 48 hrs by Annexin V-FITC/PI staining based flow cytometry (reference value: 0.118%). Type of experiment: functional.
Experiment [5] relates to OVCAR-3. Nature of the experiment: Induction of apoptosis in human OVCAR-3 cells assessed as necrotic cell at 10 uM after 48 hrs by Annexin V-FITC/PI staining based flow cytometry (reference value: 0.00%). In kind it is functional.
The test system of experiment [6] is OVCAR-3. Briefly: Induction of apoptosis in human OVCAR-3 cells assessed as viable cell at 10 uM after 48 hrs by Annexin V-FITC/PI staining based flow cytometry (reference value: 98.3%). Type of experiment: functional.
The subject of experiment [7] is OVCAR-3. Briefly: Induction of apoptosis in human OVCAR-3 cells assessed as viable cell at 10 uM after 48 hrs in presence of 4C-TPPBr by Annexin V-FITC/PI staining based flow cytometry (reference value: 98.3%). Type of experiment: functional.
Experiment [8] concerns OVCAR-3. Briefly: Induction of apoptosis in human OVCAR-3 cells assessed as necrotic cell at 10 uM after 48 hrsin presence of 4C-TPPBr by Annexin V-FITC/PI staining based flow cytometry (reference value: 0.00%). The following applies: time 48 hrs. Type of experiment: functional.
In experiment [9] the test system is OVCAR-3. Briefly: Induction of apoptosis in human OVCAR-3 cells assessed as late apoptotic cell at 10 uM after 48 hrs in presence of 4C-TPPBr by Annexin V-FITC/PI staining based flow cytometry (reference value: 0.118%). Type of experiment: functional.
For experiment [10], the system named is OVCAR-3. Briefly: Induction of apoptosis in human OVCAR-3 cells assessed as early apoptotic cell at 10 uM after 48 hrs in presence of 4C-TPPBr by Annexin V-FITC/PI staining based flow cytometry (reference value: 1.58%). In kind it is functional.
Experiment [11] in a line: Selectivity index ratio of IC50 for HUVEC to IC50 for human OVCAR3 cells.
The test system of experiment [12] is OVCAR-3. Briefly: Induction of apoptosis in human OVCAR-3 assessed as nuclear blebbing measured after 48 hrs by Hoechst 33258 staining based fluorescence microscopic analysis. In kind it is functional, cell-based. As to conditions: dose 3-10 µM.
For experiment [13], the system named is OVCAR-3. Briefly: Induction of apoptosis in human OVCAR-3 assessed as nuclear rounding measured after 48 hrs by Hoechst 33258 staining based fluorescence microscopic analysis. The following applies: dose 3-10 µM. In kind it is functional, cell-based.
Experiment [14] deals with OVCAR-3. Briefly: Induction of mitochondrial membrane potential loss in human OVCAR-3 cells assessed as mitochondrial depolarization by measuring green fluorescence at 3 uM measured after 48 hrs by JCI staining based fluorescence microscopy (reference value: 3.3 %). In kind it is functional.
For experiment [15], the system named is OVCAR-3. Nature of the experiment: Induction of mitochondrial membrane potential loss in human OVCAR-3 cells assessed as mitochondrial depolarization by measuring green fluorescence at 10 uM measured after 48 hrs by JCI staining based fluorescence microscopy (reference value: 3.3 %). Type of experiment: functional.
The subject of experiment [16] is OVCAR-3. Briefly: Induction of mitochondrial membrane potential loss in human OVCAR-3 cells assessed as mitochondrial depolarization by measuring green fluorescence at 30 uM measured after 48 hrs by JCI staining based fluorescence microscopy (reference value: 3.3 %). In kind it is functional.
In experiment [17] the test system is OVCAR-3. Nature of the experiment: Induction of heme-mediated cell death in human OVCAR-3 cells assessed as reduction in cell viability at 3 to 30 uM pretreated with delta-aminolevulinic acid followed by compound addition by Hoechst 33258 staining based assay. As to conditions: dose 3-30 µM.
In experiment [18] the test system is OVCAR-3. Nature of the experiment: Induction of heme-mediated cell death in human OVCAR-3 cells assessed as reduction in cell viability at 3 to 30 uM pretreated with succinyl-acetone followed by compound addition by Hoechst 33258 staining based assay. As to conditions: dose 3-30 µM.
The test system of experiment [19] is OVCAR-3. Nature of the experiment: Induction of apoptosis in human OVCAR-3 assessed as nuclear shrinkage measured after 48 hrs by Hoechst 33258 staining based fluorescence microscopic analysis. Type of experiment: functional, cell-based. As to conditions: dose 3-10 µM.
Experiment [20] relates to A549. Briefly: Potency index, ratio of cisplatin IC50 to test compound IC50 for human A549 cells. In kind it is functional.
The subject of experiment [21] is OVCAR-3. Briefly: Potency index, ratio of cisplatin IC50 to test compound IC50 for human OVCAR-3 cells. Type of experiment: functional.
In experiment [22] the test system is OVCAR-3. Nature of the experiment: Induction of ROS generation in human OVCAR-3 cells measured after 48 hrs by DCFH-DA staining based fluorescence microscopy. In kind it is functional, cell-based. As to conditions: dose 1-10 µM.
The test system of experiment [23] is OVCAR-3. Nature of the experiment: Induction of ROS generation in human OVCAR-3 cells at 1 to 10 uM measured after 48 hrs in presence of N-acetyl cysteine by DCFH-DA staining based fluorescence microscopy. Type of experiment: functional, cell-based. The following applies: dose 1-10 µM.
The test system of experiment [24] is OVCAR-3. Nature of the experiment: Cytotoxicity against human OVCAR-3 cells at 1 to 10 uM measured after 72 hrs in presence of N-acetyl cysteine by MTT assay. Type of experiment: functional, cell-based. The following applies: dose 1-10 µM.

The structures appear in SMILES notation. The source made the active and inactive calls. The calls are words filed in the database; no cut-off is given here.

The IC50 is the point on the concentration scale where inhibition reaches its midpoint.

`C[C@H]1[C@H](OC(=O)CCC(=O)OCCC[P+](c2ccccc2)(c2ccccc2)c2ccccc2)O[C@@H]2O[C@@]3(C)CC[C@H]4[C@H](C)CC[C@@H]1[C@@]24OO3`: the IC50 with SMMC-7721 came out at 23.6 µM; with HepG2, 13 µM; in the experiment on OVCAR-3 [1], 16.6 µM; in the experiment with A549 [2], 5.5 µM; in the experiment with J82, 43.8 µM; in the experiment with HUVEC it was 18.3 µM.

With `C[C@H]1[C@@H](O)O[C@@H]2O[C@@]3(C)CC[C@H]4[C@H](C)CC[C@@H]1[C@@]24OO3` [ARTENIMOL], the IC50 in the experiment on SMMC-7721 is 61.4 µM; in the experiment on HepG2, 73.6 µM; in the experiment on OVCAR-3 [1], 87.2 µM; in the experiment on A549 [2] it was 27.8 µM; with J82 it was 146 µM; in the experiment on HUVEC, 180 µM. Besides, the Activity in the experiment with OVCAR-3 [3] is recorded as 3.61%; in the experiment on OVCAR-3 [4], 1.97%; in the experiment on OVCAR-3 [5], 0.062%; with OVCAR-3 [6], 94.4%; in the experiment on OVCAR-3 [7], 95.7%; with OVCAR-3 [8] it was 0.01%. Further, the Activity in the experiment with OVCAR-3 [9] was 1.56%; in the experiment with OVCAR-3 [10] it was 2.74%.

`C[C@H]1[C@H](OC(=O)CCC(=O)O)O[C@@H]2O[C@@]3(C)CC[C@H]4[C@H](C)CC[C@@H]1[C@@]24OO3` [ARTESUNATE]: the IC50 worked out at 72.3 µM in the experiment on SMMC-7721; 47 µM with HepG2; 67.3 µM with OVCAR-3 [1]; 5.4 µM with A549 [2]; 75.7 µM in the experiment on J82; 86.1 µM in the experiment on HUVEC.

As to `C[C@H]1[C@H](OC(=O)CCCC[P+](c2ccccc2)(c2ccccc2)c2ccccc2)O[C@@H]2O[C@@]3(C)CC[C@H]4[C@H](C)CC[C@@H]1[C@@]24OO3.[Br-]`, the IC50 was 18 µM in the experiment on SMMC-7721; 5.2 µM in the experiment with HepG2; 3 µM in the experiment with OVCAR-3 [1]; 4.7 µM with A549 [2]; 41.9 µM in the experiment on J82; 24.5 µM in the experiment with HUVEC. Besides, the “Ratio IC50” value in experiment [11] came to 8.2; in the experiment on A549 [20], 4.8; in the experiment on OVCAR-3 [21] it was 4.4. Moreover, the Activity in the experiment with OVCAR-3 [3] is 10.5%; in the experiment on OVCAR-3 [4] it was 4.04%; in the experiment with OVCAR-3 [5] it was 0.078%; in the experiment with OVCAR-3 [6], 85.4%; in the experiment with OVCAR-3 [12], “Dose-dependent effect”; with OVCAR-3 [13], “Dose-dependent effect”. In addition, the Activity with OVCAR-3 [14] is 17.2%; with OVCAR-3 [15], 55.4%; in the experiment with OVCAR-3 [16] it was 95.5%; in the experiment on OVCAR-3 [19], “Dose-dependent effect”. Further, the outcome in the experiment on OVCAR-3 [17], in the experiment on OVCAR-3 [18], in the experiment on OVCAR-3 [23] and in the experiment on OVCAR-3 [24] was inactive. In addition, the outcome with OVCAR-3 [22] was Active.

On to `C[C@H]1[C@H](OC(=O)CCCCC[P+](c2ccccc2)(c2ccccc2)c2ccccc2)O[C@@H]2O[C@@]3(C)CC[C@H]4[C@H](C)CC[C@@H]1[C@@]24OO3.[Br-]`, for which the IC50 with SMMC-7721 worked out at 11.9 µM; in the experiment on HepG2, 5.3 µM; in the experiment with OVCAR-3 [1], 7.1 µM; with A549 [2] it was 2.7 µM; in the experiment with J82, 13.9 µM; in the experiment with HUVEC it was 9.1 µM. In addition, the “Ratio IC50” value in the experiment on A549 [20] stood at 4.8.

On to `C[C@H]1[C@H](OC(=O)CCC(=O)OCCCCC[P+](c2ccccc2)(c2ccccc2)c2ccccc2)O[C@@H]2O[C@@]3(C)CC[C@H]4[C@H](C)CC[C@@H]1[C@@]24OO3`, for which the IC50 was 13 µM with SMMC-7721; 16.1 µM in the experiment with HepG2; 6.6 µM in the experiment on OVCAR-3 [1]; 5.6 µM in the experiment on A549 [2]; 29.3 µM with J82; 27.5 µM with HUVEC.

As for `O=C(O)CCCC[P+](c1ccccc1)(c1ccccc1)c1ccccc1.[Br-]`, the Activity with OVCAR-3 [3] is reported as 5.81%; with OVCAR-3 [4] it was 0.625%; in the experiment with OVCAR-3 [5], 1.55%; in the experiment with OVCAR-3 [6], 92%.

In the case of `C[C@H]1[C@H](OC(=O)CCC[P+](c2ccccc2)(c2ccccc2)c2ccccc2)O[C@@H]2O[C@@]3(C)CC[C@H]4[C@H](C)CC[C@@H]1[C@@]24OO3`, the IC50 came out at 34.2 µM with SMMC-7721; 35.7 µM in the experiment on HepG2; 15.8 µM in the experiment with OVCAR-3 [1]; 12.2 µM with A549 [2]; 115 µM with J82; 116 µM in the experiment on HUVEC.

As to `C[C@H]1[C@H](OC(=O)CC[P+](c2ccccc2)(c2ccccc2)c2ccccc2)O[C@@H]2O[C@@]3(C)CC[C@H]4[C@H](C)CC[C@@H]1[C@@]24OO3`, the IC50 with SMMC-7721 came out at 62.7 µM; in the experiment on HepG2, 1.2 µM; with OVCAR-3 [1], 35.7 µM; with A549 [2], 26.5 µM; in the experiment with J82, 78.8 µM; with HUVEC, 66.5 µM.
